In US9492428B2, “Compounds, compositions, pharmaceutical compositions, and methods of use” (University of Louisville Research Foundation, Inc., priority 2011, dated 2016):

Legend:
Format in all cases: cell-based, human
PC3 cells = test: Flow cytometric analysis of cell cycle (propidium iodide) in PC3; details: 10 μM
Experimental: FIG. 11. Compound I-1 induces cell cycle arrest and apoptosis in PC3 cells. Prostate cancer cells were left untreated (−) or treated with compound I-1 (10 μM) or with vehicle (DMSO) for the time indicated in the figure. (A) For flow cytometric analysis of cell cycle parameters, cells were fixed, and stained with propidium iodide. Each histogram indicates the percent of cells in G1, S, and G2/M phases of the cell cycle. Data were gated to exclude apoptotic cells for these calculations. (B) After treatment, cells were lysed and total lysates were analyzed for cellular apoptotic markers by immunoblotting using anti-PARP-1 or anti-cleaved Caspase-3 antibodies. Anti-GAPDH-1 antibody was used as loading control. (C) Some 48 h-treated PC3 cells were harvest by trypsinization, washed with PBS, and total DNA was extracted then analyzed on a 1.8% agarose gel. M indicates DNA size marker (base pairs).
Flow cytometric assays of cell cycle and cell death. Cells in fresh complete medium were plated (2×10^5 per well) into six-well plates for 18 h. After complete adhesion, cells were treated as indicated in the figures and harvested by trypsinization. […] Cells were then analyzed by flow cytometry using a FACScalibur cytometer (BD Biosciences, Mountain View, Calif.) and FlowJo program (Tree Star, Inc., Ashland, Oreg.).

DU145 cells [1] = test: Immunoblotting of apoptotic markers (cleaved caspase-3, PARP-1) in DU145
Experimental: FIG. 13. Assays to detect apoptosis in DU145 cells. Prostate cancer cells were left untreated (−) or treated with 10 μM compound I-1 or with vehicle (DMSO) for the time indicated in the figure. (A) After treatment, cells were harvest by trypsinization, washed with PBS, and then incubated with FITC-conjugated Annexin V and propidium iodide. Flow cytometric analysis was performed. The histogram for each sample was split into four quadrants to indicate: viable cells (lower left quadrant), apoptotic cells (lower right quadrant), necrotic cells (upper left quadrant), and necrotic/late apoptotic cells (upper right quadrant). (B) After treatment, cells were lysed and total lysates were analyzed for cellular apoptotic markers by immunoblotting using anti-[…] or antibodies specific to the activated form of Caspase-3 (cleaved Caspase-3). Anti-GAPDH-1 antibody was used as loading control. (C) Some cells were harvested by trypsinization, washed with PBS, and total DNA was extracted then analyzed on a 1.8% agarose gel. M indicates DNA size marker (base pairs).
Cell Culture and Treatment. All cells were obtained from ATCC and were grown in a humidified incubator at 37° C. with 5% CO2. DU145 (hormone-refractory prostate cancer) cells were grown in DMEM and PC3 (hormone-refractory prostate cancer) were grown in F-12K medium supplemented with 10% fetal bovine serum (FBS; Life Technologies), 62.5 μg/mL penicillin and 100 μg/mL streptomycin (Hyclone Laboratories, Logan, Utah). Cells (1×10^6) in fresh complete culture medium were plated on 10 cm diameter tissue dishes for 18 h. Cells for biochemical analyses cells were lysed in lysis buffer (150 mM NaCl, 2 mM EDTA, 50 mM Tris-HCl, 0.25% deoxycholic acid, 1% octylphenoxypolyethoxyethanol (IGEPAL CA-630), pH 7.5) containing protease and phosphatase inhibitor cocktails (Calbiochem, Billerica, Mass.) for 10 min at 4° C. and then cleared by centrifugation at 16,000 g for 10 min at 4° C. All protein concentrations were determined using the bicinchoninic acid (BCA) protein assay (Pierce, Rockford, Ill.).
Immunoblotting. Samples were resolved by 4-20% precast linear gradient SDS-Tris polyacrylamide gel electrophoresis (Bio-rad Bio-Rad Laboratories, Hercules, Calif.) and then electrotransferred onto polyvinylidine fluoride membranes (Millipore, Bedford, Mass.) in Tris-glycine buffer containing 20% methanol. […] Antibody-reactive proteins were detected using a chemiluminescence substrate (SuperSignal; Pierce, Rockford, Ill.) according to the manufacturer's instructions. […]
Next, to further confirm that compound I-1 induces apoptosis in prostate cancer cells, we evaluated key apoptotic molecular markers. […]

DU145 cells [2] = test: Trypan blue exclusion assay (cell death); details: 10 μM, 72 h
Experimental: FIG. 12. Trypan blue exclusion assay to determine cell death. DU145 prostate cancer cells were left untreated or treated with 10 μM compound I-1 or with vehicle (DMSO) for 72 h. After treatment, all cells (both adherent and floating) were harvested, stained with trypan blue, and counted immediately to determine the percentage of non-viable cells (stained blue). Columns represent the mean of three independent experiments, bars represent standard error, and numbers above each column represent the percentage of blue cells in the sample.
Compound I-1 promotes cell death by apoptosis. Because prolonged cell cycle arrest can cause induction of cell death, we next investigated the viability of prostate cancer cells treated with compound I-1. To begin, we used the trypan blue exclusion assay, which is based on the principle that live cells will exclude membrane-impermeable dyes such as trypan blue, whereas trypan blue will get inside the dead cells and stain them. […] To determine whether apoptosis (programmed cell death) is the cause of cell death induced by compound I-1, we examined the cells for biochemical and morphological markers of apoptosis. […]

With `C[C@@H]1CC[C@H]2C3C(O[C@]4([C@]5(O)CC6(C)C(=O)OC5C[C@@]6(C)O)CC[C@@]31O4)[C@H]1O[C@]13CC=CC(=O)[C@]23C` (stereo partly drawn) [I-1] as the compound, how does the G2/M arrest (PC3 cells) read?
Its G2/M arrest is “able to cause G2/M arrest”.

And the “activated caspase-3” value (DU145 cells [1]; 10 μM, 48 h and 72 h)?
Its value is “detected”.

And the “cleavage of PARP-1 protein (additional band at 89 kDa)” value (DU145 cells [1]; 10 μM, 48 h and 72 h)?
Its value is “detected”.

And the Caspase-3 activation (DU145 cells [1]; time periods shorter than 48 h)?
Its Caspase-3 activation is “could not be detected”.

And the PARP-1 cleavage (DU145 cells [1]; time periods shorter than 48 h)?
The PARP-1 cleavage was “could not be detected”.

What about the “dead cells (trypan blue)” value (DU145 cells [2]) of the same compound?
The value was ~90%.
